This assay addresses human APJ receptor (Homo sapiens (Human), UniProt P35414). In words: biochemical. The class given is biochemical. As to conditions: [35S]GTPγS binding, CHO membranes expressing human APJ receptor; read-out: Activity hAPJ SPA EC50 IP. Put shortly:
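Membranes of a stable CHO line carrying human APJ (pFLAG-CMV-3) were used in a GTPγS binding format; buffer GDP, MgCl2 and NaCl were optimized, and plates were read after 90 min at RT.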

The values that follow come from patent publication US11046680B1, “Heteroaryl-substituted triazoles as APJ receptor agonists” (priority 2016, dated 2021).

pEC50: −log10 of the molar value.

Chain of human APJ receptor (P35414 whole entry): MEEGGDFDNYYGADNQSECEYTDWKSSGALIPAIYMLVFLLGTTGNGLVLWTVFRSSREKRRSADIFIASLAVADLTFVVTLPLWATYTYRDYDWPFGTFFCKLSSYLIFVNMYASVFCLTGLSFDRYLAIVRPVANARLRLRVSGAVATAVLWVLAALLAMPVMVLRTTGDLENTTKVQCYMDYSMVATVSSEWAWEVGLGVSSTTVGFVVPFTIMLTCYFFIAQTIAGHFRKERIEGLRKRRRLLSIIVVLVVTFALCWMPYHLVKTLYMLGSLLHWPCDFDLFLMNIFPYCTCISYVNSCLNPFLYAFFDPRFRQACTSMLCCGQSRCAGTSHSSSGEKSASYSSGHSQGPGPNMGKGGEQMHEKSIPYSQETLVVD

For `COc1cccc(OC)c1-n1c(NS(=O)(=O)[C@@H](C)[C@H](OC)c2ncc(C)cn2)nnc1-c1cc2n(n1)CCC2` [Example 205.0, (1R,2S)-N-(5-(5,6-dihydro-4H-pyrrolo[1,2-b]pyrazol-2-yl)-4-(2,6-dimethoxyphenyl)-4H-1,2,4-triazol-3-yl)-1-methoxy-1-(5-methyl-2-pyrimidinyl)-2-propanesulfonamide], the pEC50 was 8.52.
The value for `CC(C)O[C@@H](c1ncc(Cl)cn1)[C@H](C)S(=O)(=O)Nc1nnc(-c2ccn(C)n2)n1C1(C)CC1` [Example 538.0, (1S,2S)-1-(5-chloro-2-pyrimidinyl)-N-(4-(1-methylcyclopropyl)-5-(1-methyl-1H-pyrazol-3-yl)-4H-1,2,4-triazol-3-yl)-1-(2-propanyloxy)-2-propanesulfonamide] was 7.70; that for `COc1cccc(OC)c1-n1c(NS(=O)(=O)[C@@H](C)[C@H](C)c2ncc(F)cn2)nnc1-c1cc2n(n1)CCC2` [Example 208.0, (2S,3R)-N-(5-(5,6-dihydro-4H-pyrrolo[1,2-b]pyrazol-2-yl)-4-(2,6-dimethoxyphenyl)-4H-1,2,4-triazol-3-yl)-3-(5-fluoro-2-pyrimidinyl)-2-butanesulfonamide] was 8.60; that for `COc1cccc(OC)c1-n1c(NS(=O)(=O)C[C@H](O)c2ccc(F)cc2S(C)(=O)=O)nnc1-c1ccn(C)n1` (single isomer, unassigned) [Example 371.0, (R)-N-(4-(2,6-Dimethoxyphenyl)-5-(1-methyl-1H-pyrazol-3-yl)-4H-1,2,4-triazol-3-yl)-2-(4-fluoro-2-(methylsulfonyl)phenyl)-2-hydroxyethanesulfonamide or (S)-N-(4-(2,6-dimethoxyphenyl)-5-(1-methyl-1H-pyrazol-3-yl)-4H-1,2,4-triazol-3-yl)-2-(4-fluoro-2-(methylsulfonyl)phenyl)-2-hydroxyethanesulfonamide] was 8.66.
Next, `COc1cccc(OC)c1-n1c(NS(=O)(=O)[C@@H](C)[C@H](OC)c2ncc(Cl)cn2)nnc1-c1c(C)nc2ccccn12` [Example 428.0, (1R,25)-1-(5-chloropyrimidin-2-yl)-N-(4-(2,6-dimethoxyphenyl)-5-(2-methylimidazo[1,2-a]pyridin-3-yl)-4H-1,2,4-triazol-3-yl)-1-methoxypropane-2-sulfonamide]: 6.92.
`COc1cccc(OC)c1-n1c(NS(=O)(=O)[C@@H](C)[C@H](OC)c2ncc(C)cn2)nnc1-c1ccnc2ccccc12` [Example 417.0]: the pEC50 was 6.29.
The value for `COc1ncnc(OC)c1-n1c(NS(=O)(=O)[C@@H](C)[C@H](OC)c2ncc(Cl)cn2)nnc1-c1ccn(C)n1` [Example 450.0, (1R,2S)-1-(5-chloro-2-pyrimidinyl)-N-(4-(4,6-dimethoxy-5-pyrimidinyl)-5-(1-methyl-1H-pyrazol-3-yl)-4H-1,2,4-triazol-3-yl)-1-methoxy-2-propanesulfonamide] was 9.09; that for `COc1cccc(OC)c1-n1c(NS(=O)(=O)[C@@H](C)[C@@H](OC(C)C)c2ncc(C)cn2)nnc1-c1ccn(C)n1` [Example 355.0, (1S,2S)-N-(4-(2,6-dimethoxyphenyl)-5-(1-methyl-1H-pyrazol-3-yl)-4H-1,2,4-triazol-3-yl)-1-isopropoxy-1-(5-methylpyrimidin-2-yl)propane-2-sulfonamide] was 9.33; that for `COc1cccc(OC)c1-n1c(NS(=O)(=O)[C@H](C)Cc2ncc(F)cn2)nnc1-c1cnccn1` (single isomer, unassigned) [Example 29.0, (R)-N-(4-(2,6-dimethoxyphenyl)-5-(pyrazin-2-yl)-4H-1,2,4-triazol-3-yl)-1-(5-fluoropyrimidin-2-yl)propane-2-sulfonamide or (S)-N-(4-(2,6-dimethoxyphenyl)-5-(pyrazin-2-yl)-4H-1,2,4-triazol-3-yl)-1-(5-fluoropyrimidin-2-yl)propane-2-sulfonamide] was 7.33.
Next, `CCc1csc(-c2nnc(NS(=O)(=O)CCc3ncc(F)cn3)n2-c2c(OC)cccc2OC)n1` [Example 97.0, N-(4-(2,6-dimethoxyphenyl)-5-(4-ethylthiazol-2-yl)-4H-1,2,4-triazol-3-yl)-2-(5-fluoropyrimidin-2-yl)ethanesulfonamide]: 8.15; `COc1cccc(OC)c1-n1c(NS(=O)(=O)[C@@H](C)[C@H](O)c2ncc(C)cn2)nnc1-c1ccn(C(F)F)n1` [Example 218.0, (1R,2S)-N-(5-(1-(difluoromethyl)-1H-pyrazol-3-yl)-4-(2,6-dimethoxyphenyl)-4H-1,2,4-triazol-3-yl)-1-hydroxy-1-(5-methyl-2-pyrimidinyl)-2-propanesulfonamide]: 9.06.
The value for `COCC1(n2c(NS(=O)(=O)[C@@H](C)[C@@H](OC(C)C)c3ncc(C)cn3)nnc2-c2ccn(C)n2)CC1` [Example 462.0, (1S,2S)-N-(4-(1-(methoxymethyl)cyclopropyl)-5-(1-methyl-1H-pyrazol-3-yl)-4H-1,2,4-triazol-3-yl)-1-(5-methyl-2-pyrimidinyl)-1-(2-propanyloxy)-2-propanesulfonamide] was 8.39; that for `COc1ccc(NCCO)cc1-n1c(NS(=O)(=O)CCc2ccc(Cl)cc2)nnc1-c1cccs1` [Example 251.0, 2-(4-chlorophenyl)-N-(4-(5-((2-hydroxyethyl)amino)-2-methoxyphenyl)-5-(2-thiophenyl)-4H-1,2,4-triazol-3-yl)ethanesulfonamide] was 6.34.
For the compound `COc1cccc(OC)c1-n1c(NS(=O)(=O)[C@H](C)Cc2ncc(F)cn2)nnc1-c1nc(C2CC2)cs1` [Example 161.0], the pEC50 was 8.42.
Next, `COc1cccc(OC)c1-n1c(NS(=O)(=O)[C@@H](C)[C@H](OC)c2ncc(C)cn2)nnc1-c1n[nH]c2ccc(F)cc12` [Example 437.0]: 6.72.
Next, `CCO[C@H](c1ncc(Cl)cn1)[C@H](C)S(=O)(=O)Nc1nnc(-c2cc(C)n[nH]2)n1-c1c(OC)cccc1OC` [Example 392.0, (1R,2S)-1-(5-Chloropyrimidin-2-yl)-N-(4-(2,6-dimethoxyphenyl)-5-(3-methyl-1H-pyrazol-5-yl)-4H-1,2,4-triazol-3-yl)-1-ethoxypropane-2-sulfonamide]: 9.00.
Turning to `COc1cccc(OC)c1-n1c(NS(=O)(=O)[C@@H](C)[C@H](C)c2ncc(F)cn2)nnc1-c1nc(C)cs1` (single isomer, unassigned) [Example 120.0], the pEC50 was 9.77.
Next, `COc1cccc(OC)c1-n1c(NS(=O)(=O)[C@H](C)Cc2ncc(F)cn2)nnc1-c1nc(C)cs1` (single isomer, unassigned) [Example 101.0, (R)-N-(4-(2,6-Dimethoxyphenyl)-5-(4-methylthiazol-2-yl)-4H-1,2,4-triazol-3-yl)-1-(5-fluoropyrimidin-2-yl)propane-2-sulfonamide or (S)-N-(4-(2,6-dimethoxyphenyl)-5-(4-methylthiazol-2-yl)-4H-1,2,4-triazol-3-yl)-1-(5-fluoropyrimidin-2-yl)propane-2-sulfonamide]: 9.15.
As to `CCO[C@@H](c1ncc(Cl)cn1)[C@@H](C)S(=O)(=O)Nc1nnc(-c2ccn(C)n2)n1-c1c(OC)cccc1OC` (single isomer, unassigned) [Example 354.0, (1S,2R)-1-(5-chloropyrimidin-2-yl)-N-(4-(2,6-dimethoxyphenyl)-5-(1-methyl-1H-pyrazol-3-yl)-4H-1,2,4-triazol-3-yl)-1-ethoxypropane-2-sulfonamide or (1R,25)-1-(5-chloropyrimidin-2-yl)-N-(4-(2,6-dimethoxyphenyl)-5-(1-methyl-1H-pyrazol-3-yl)-4H-1,2,4-triazol-3-yl)-1-ethoxypropane-2-sulfonamide], the pEC50 is 9.12.
The value for `COc1cccc(OC)c1-n1c(NS(=O)(=O)[C@H](C)Cc2ccc(C#N)cn2)nnc1-c1nc(C)cs1` (single isomer, unassigned) [Example 11.0, (2R)-1-(5-cyano-2-pyridinyl)-N-(4-(2,6-dimethoxyphenyl)-5-(4-methyl-1,3-thiazol-2-yl)-4H-1,2,4-triazol-3-yl)-2-propanesulfonamide or (2S)-1-(5-cyano-2-pyridinyl)-N-(4-(2,6-dimethoxyphenyl)-5-(4-methyl-1,3-thiazol-2-yl)-4H-1,2,4-triazol-3-yl)-2-propanesulfonamide] was 9.10; that for `COc1cccc(OC)c1-n1c(NS(=O)(=O)CC[C@@H](O)C2CCCC2)nnc1-c1cccs1` (mixture of isomers) [Example 362.0, (R)-3-Cyclopentyl-N-(4-(2,6-dimethoxyphenyl)-5-(thiophen-2-yl)-4H-1,2,4-triazol-3-yl)-3-hydroxypropane-1-sulfonamide and (S)-3-cyclopentyl-N-(4-(2,6-dimethoxyphenyl)-5-(thiophen-2-yl)-4H-1,2,4-triazol-3-yl)-3-hydroxypropane-1-sulfonamide] was 8.52.
The value for `CO[C@H](c1ncc(Cl)cn1)[C@H](C)S(=O)(=O)Nc1nnc(-c2noc3ccccc23)n1C1CC1` [Example 506.0, (1R,2S)-N-(5-(benzo[d]isoxazol-3-yl)-4-cyclopropyl-4H-1,2,4-triazol-3-yl)-1-(5-chloropyrimidin-2-yl)-1-methoxypropane-2-sulfonamide] was 6.59; that for `COc1cccc(OC)c1-n1c(NS(=O)(=O)CCc2ncc(F)cn2)nnc1-c1nc(C)cs1` [Example 94.0, N-(4-(2,6-dimethoxyphenyl)-5-(4-methylthiazol-2-yl)-4H-1,2,4-triazol-3-yl)-2-(5-fluoropyrimidin-2-yl)ethanesulfonamide] was 8.57; that for `COc1cnc([C@H](C)[C@H](C)S(=O)(=O)Nc2nnc(-c3ccn(C)n3)n2-c2c(OC)ncnc2OC)nc1` [Example 297.0] was 9.85.
Next, `COc1ccccc1-n1c(NS(=O)(=O)CCc2ccccc2)nnc1-c1cccs1` [Example 238.0, N-(4-(2-methoxyphenyl)-5-(2-thiophenyl)-4H-1,2,4-triazol-3-yl)-2-phenylethanesulfonamide]: 6.65.
